For test [1], the target named is CHIKV nsP1. The experiment in a line: FP Kd determination of GTP-Bodipy and ATP-Bodipy with purified CHIKV nsP1. The settings on record: fluorescence polarization, nsP1 titrated 3 μM to 1 nM, 1 hour 25°C. (Polarisation of emitted light reports the rotation of a fluorescent probe.)
For test [2], the system named is CHIKV nsP1 GTP binding site. In words: FP competition assay, displacement of GTP-Bodipy by GTP and RNA cap analogs (apparent Ki / EC50). The settings on record: for affinity for nsP1 GTP binding site / ability to compete with GTP-Bodipy (in words): FP competition, compared with GTP; for Ki: read-out: Average Ki, apparent Ki, 500 nM nsP1, 10 nM GTP-Bodipy, 1 hour 25°C.

Test [3] concerns CHIKV nsP1. The experiment in a line: HTS validation potency repeatability, EC50 of GTP analogs in two independent FP runs.
In test [4] the test system is CHIKV nsP1 guanylation activity. In words: Guanylation assay, covalent nsP1-GTP-680 formation, SDS-PAGE fluorescence. The settings on record: 100 μM analog, Fig 4 data; for Average POC: mean of replicates; for Percent of Control: single replicates, scaled guanylation.

As a reminder, the Kd is the free concentration of one partner at which half of the binding sites on the other are occupied at equilibrium, for simple one-to-one binding. Higher therefore signals weaker binding. With “Bodipy-γ-phosphate-labeled ATP analog [ATP-Bodipy]”, the Kd in test [1] (5 nM ATP-Bodipy) is 2100 nM.
Turning to `O=c1[nH]cnc2c1ncn2[C@@H]1O[C@H](COP(=O)(O)OP(=O)(O)OP(=O)(O)O)[C@@H](O)[C@H]1O` [ITP], the “affinity for nsP1 GTP binding site / ability to compete with GTP-Bodipy (in words)” value in test [2] was “moderate decrease in affinity”. Moreover, the Ki in test [2] stood at 1910 nM. Further, the “Geometric Mean Potency” value in test [3] (first set of rows) stood at 4.642; in test [3] (second set of rows) it was 4.657. Moreover, the “Average POC” value in test [4] was 74.6508. The “Percent of Control” value in test [4] (100 µM) is recorded as 92.365; in test [4] (listed as ITP2, 100 µM) it was 66.4533; in test [4] (listed as ITP3, 100 µM), 65.1342.
Turning to `Nc1ncnc2c1ncn2[C@@H]1O[C@H](COP(=O)(O)OP(=O)(O)OP(=O)(O)O)[C@@H](O)[C@H]1O` [ATP], the “affinity for nsP1 GTP binding site / ability to compete with GTP-Bodipy (in words)” value in test [2] is recorded as “six fold affinity reduction”. The Ki in test [2] stood at 3340 nM. For the same molecule, the “Geometric Mean Potency” value in test [3] (first set of rows) is listed as 4.371; in test [3] (second set of rows), 4.429. The “Average POC” value in test [4] is given as 73.0319. In addition, the “Percent of Control” value in test [4] (100 µM) was 67.4851; in test [4] (listed as ATP2, 100 µM) it was 83.2927; in test [4] (listed as ATP3, 100 µM) it was 68.3179.
For “Bodipy-γ-phosphate-labeled GTP analog [GTP-Bodipy]”, binding in test [1] (10 nM GTP-Bodipy) was characterised by a dissociation constant (Kd) of 100 nM.
In the case of `C[n+]1cn([C@@H]2O[C@H](COP(=O)([O-])OP(=O)(O)OP(=O)(O)OC[C@H]3O[C@@H](n4cnc5c(N)ncnc54)[C@H](O)[C@@H]3O)[C@@H](O)[C@H]2O)c2nc(N)[nH]c(=O)c21` [me^7-GpppA], the Ki in test [2] is 7000 nM. The entries for the “Geometric Mean Potency” value in test [3] (first set of rows) and in test [3] (second set of rows) were 4.163 and 4.105, respectively. In test [4], the “Average POC” value amounted to 75.4802. Further, the “Percent of Control” value in test [4] (listed as m7-GpppA2, 100 µM) is listed as 75.9437; in test [4] (listed as m7-GpppA3, 100 µM), 80.9779; in test [4] (listed as m7-GpppA, 100 µM), 69.519.

For the origin of these results see article PMC4948833, “A Sensitive and Robust High-Throughput Screening Assay for Inhibitors of the Chikungunya Virus nsP1 Capping Enzyme” (PLoS ONE, 2016).
